{"source": "patent US8053197B2", "about": "“Methods for detecting and treating autoimmune disorders” (Oregon Health & Science University, priority 2004, dated 2011)", "key": {"PBMC": {"system": "PBMC", "assay": "ELISPOT assay of IL-10 and IFN-γ secreting T cells responding to TCR CDR2 peptides", "assay_type": "cell-based, human", "settings": "for IFN-γ response: recognition by MS patients: induced IFN-γ-secreting T cells in all 5 HC; for frequency of IL-10-secreting T cells / frequency of IFN-γ secreting cells: 5 HC donors, single peptide; for response of MS patients compared with HC: expanded panel, 3 MS patients vs 5 HC", "procedure": "FIGS. 13A-13B PBMC from healthy controls (HC) and MS patients respond differentially to TCR CDR2 peptides. A. Production of IL-10 and IFN-gamma was measured in the PBMC response to TCR BV CDR2 peptides (left) and TCR AV CDR2 peptides (right) representing the entire TCR BV and AV gene repertoire as measured by ELISPOT assay. PBMC responses to ConA were equivalent in HC and MS patients (not shown). B. Summary of cytokine-producing cells in which IL-10 or IFN-gamma production was summed for responses to all BV+AV CDR2 peptides. Total cytokine production represents the summation of IL-10-+IFN-gamma-secreting cells for all peptides. *P<0.05 comparing the frequency in HC vs. MS patients. The HC group consisted of five individuals, three females and two males. The MS patient group consisted of three individuals, two females with relapsing, remitting MS, both symptomatic, and one person with secondary, progressive MS.\nTo determine antigen-specific T cell frequency by ELISPOT, blood mononuclear cells were separated by Ficoll density gradient centrifugation, resuspended in 2% human AB serum, and aliquotted at 0.5 and 0.25 million cells in triplicate wells of nitrocellulose-coated microliter plates (Becton Dickinson, Franklin Lakes, N.J.) pretreated with anti-IFN-γ (Mabtech, Sweden) or anti-IL-10 (PharMingen, San Diego, Calif.) mAb. Peptides, ConA, and medium were added and the plates incubated at 37C for 24 hours (IFN-γ) or 48 hours (IL-10). Biotin-labeled secondary mAb for each cytokine was added, followed by streptavidin-alkaline phosphatase (Dako Corp., Carpinteria, Calif.) and substrate (BCIP/NBT phosphatase substrate, KPL Laboratories, Gaithersburg, Md.) to develop optimal blue staining. Cytokine spots were quantified using an AID Immunospot Analyzer (AID, Cleveland, Ohio) equipped with a high resolution lens camera and analytical software designed for use with the AID system. Mean spots/well were calculated for each Ag, and net counts established after subtraction of background (no Ag). The frequency of Ag-specific spot-forming cells per million PBMC was determined from the average net response observed at two different cell concentrations. The mean net frequency +SEM was calculated for MS patients and HC, and differences compared by Student's t test for significance (p<0.05).\nPBMC were removed from plates by washing with 3× with PBS and 3× with PBS/0.05% Tween, pH 7.6. To each well was added 100 μl of either anti-IFN-γ (1 μg/ml, Mabtech, Sweden) or anti-IL-10 (2 μg/ml, PharMingen, San Diego, Calif.) and incubated for 4 hours at room temperature in the dark. Plates were washed 4× with PBS/Tween, then 100 μl per well of alkaline-phosphatase-conjugated streptavidin (DAKO) (1:1000 of stock) was added and plates were incubated for 45 minutes at room temperature. Plates were washed 4× with PBS/Tween and 6× with PBS, 1 minute each. 100 μl of BCIP/NBT substrate (KPL Laboratories, Gaithersburg, Md.) was added and the color reaction was allowed to develop for 3-7 minutes. Plates were rinsed 3× with distilled water and dried overnight at room temperature.\nPlates were scanned with an Immunospot Reader (Cellular Technology Limited, Cleveland, Ohio) with optimized lighting conditions and analyzed according to the predetermined parameters of sensitivity, spot size, and background. The background counts were subtracted, and data was then normalized to cytokine secreting cells per million PBMC plated.\nTo evaluate native recognition of TCR determinants, the frequency of IL-10 and IFN-γ secreting T cells from the blood of 5 HC (3 females, 2 males, average age 28) was assessed using the ELISPOT assay, to detect responses to a comprehensive panel of 113 unique CDR2 peptides representing nearly all of the AV and BV repertoires (Table 1). Only 3 peptides, AV1 S4A1N1T, BV1551 and BV20S1A1N1, could not be tested due to solubility and toxicity problems. […]"}, "[1]": {"system": "CD4+CD25+ versus CD4+CD25− populations", "assay": "Proliferation of CD4+CD25+ versus CD4+CD25− populations stimulated with TCR peptide pool or control antigens", "assay_type": "cell-based, human", "settings": "HC donors with measurable Treg activity", "excerpt": "To establish a connection between TCR-reactive T cells and Treg cells, whether TCR reactivity could be found in the CD4+CD25+ Treg cell subpopulation isolated directly from HC was first determined. Thus, CD4+CD25+ versus CD4+CD25− populations were isolated and stimulated with a pool of eight TCR CDR2 peptides that optimally distinguished differences in IL-10 responses between HC and MS patients (designated as Pool #1), or with control antigens, including Copolymer 1, a pool of neuropeptide antigens, and the recall antigen, TT. […] In addition, five treatment-naïve MS patients had no response to Pool #1 peptides in either the CD4+CD25+ or CD4+CD25− fractions and also had no detectable Treg activity. Six MS patients undergoing standard treatment also lacked response to Pool #1 peptides and Treg activity."}}}
{"substance": "ALGQGPQFIFQTYEEEERQRG (TCR CDR2 peptide.) [BV5S2]", "values": [{"measurement": "frequencies of IL-10-secreting PBMC in MS patients versus HC", "setting": "PBMC", "value": "significantly lower"}]}
{"substance": "DLGHGLRLIHYSYGVKDTNKG (TCR CDR2 peptide.) [BV12S2A2T]", "values": [{"measurement": "IFN-γ response: recognition by MS patients", "setting": "PBMC", "value": "poorly recognized"}]}
{"substance": "DLGHGLRLIHYSYGVQDTNKG (TCR CDR2 peptide.) [BV12S2A1T]", "values": [{"measurement": "IFN-γ response: recognition by MS patients", "setting": "PBMC", "value": "poorly recognized"}]}
{"substance": "Glatiramer acetate [Cop-1]", "values": [{"measurement": "proliferation of CD4+CD25+ compared with CD4+CD25− population", "setting": "[1]", "value": "no proliferative response above background"}]}
{"substance": "KHGEAPVFLMILLKGGEQKGH (TCR CDR2 peptide.) [AV29S1A2T]", "values": [{"measurement": "frequency of IL-10-secreting T cells", "setting": "PBMC", "value": "> 1000", "unit": "cells/million PBMC"}, {"measurement": "response of MS patients compared with HC", "setting": "PBMC", "value": "as well or better than HC"}]}
{"substance": "KLEEELKFLVYFQNEELIQKA (TCR CDR2 peptide.) [BV10S1P]", "values": [{"measurement": "frequency of IFN-γ secreting cells", "setting": "PBMC", "value": "minimal frequencies"}, {"measurement": "frequency of IL-10-secreting T cells", "setting": "PBMC", "value": "> 2000", "unit": "cells/million PBMC"}]}
{"substance": "NQNKEFMLLISFQNEQVLQET (TCR CDR2 peptide.) [BV19S1P]", "values": [{"measurement": "frequency of IFN-γ secreting cells", "setting": "PBMC", "value": 900, "unit": "cells/million PBMC"}]}
{"substance": "SSGEMIFLIYQGSYDQQNATE (TCR CDR2 peptide.) [ADV6S1A1N1]", "values": [{"measurement": "IFN-γ response: recognition by MS patients", "setting": "PBMC", "value": "poorly recognized"}]}
{"substance": "TT: the recall antigen, TT", "values": [{"measurement": "proliferation of CD4+CD25+ compared with CD4+CD25− population", "setting": "[1]", "value": "present mainly in the CD4+CD25− fraction"}]}
{"substance": "YPNQGLQLLLKYTSAATLVKG (TCR CDR2 peptide.) [AV1S2A1N1T]", "values": [{"measurement": "response of MS patients compared with HC", "setting": "PBMC", "value": "as well or better than HC"}]}
